Data: US10761045B2, “Sensor, sensor system, method of manufacturing sensor, and method of measuring concentration of target substance” (PHC Holdings Corporation, priority 2010, dated 2020)

Legend:
[1] = Storage stability of reagent solution (response current of sensors made with stored vs fresh reagent solution); format: physicochemical; conditions: additive in reagent solution C composition (PQSA, FAD-GDH); additive conc. 1.0-5.0 mM
Description: A sensor having the configuration illustrated in FIG. 1 was manufactured. The detailed procedure will now be described. First, by sputtering palladium, 8 nm-thick conductive layer 3 was deposited on substrate 2 which was 30 mm in length, 7 mm in width and 0.2 mm in thickness and which contained polyethylene terephthalate as its main component. Thereafter, a 0.1 mm-width non-conductive track was formed by laser ablation, to form electrodes 31 to 33. Electrode 31 was designed to function as a working electrode, electrode 32 as a counter electrode, and electrode 33 as a sensing electrode.
Using a microsyringe, 1.2 μL of each reagent solution was applied to form reagent layer 4 in a shape of 2.2 mm diameter-circular. After formation of reagent layer 4, spacer 5 (0.145 mm thick) having a cut-out with a length of 3.4 mm a width of 1.2 mm and cover 6 were sequentially attached to the substrate having the electrodes formed thereon. In this way a sensor was manufactured that has a capillary having a volume of 0.6 μL. […]
Response current values of each sensor were measured using a series of glucose solutions of known concentrations.
By adding as an additive imidazole, histamine, histidine, 2-aminoimidazole, 4,5-bis(hydroxymethyl)imidazole, 1,2,4-triazole, 3-amino-1,2,4-triazole, 4-amino-1,2,4-triazole, 3,5-diamino-1,2,4-triazole, 2-methylimidazole, or 1,2-dimethylimidazole, reagent solutions were prepared that contain the same composition as reagent solution C except the type and concentration of the additive. The concentrations of the additives are as indicated in Tables below and the accompanying drawings.
Further, sensors were manufactured using the same reagent solutions stored at 25° C. and 5% humidity for 24 hours after preparation. […]

[2] = Cyclic voltammetry of reagent solutions A and B (PQSA, FAD-GDH, with or without imidazole); format: physicochemical
Description: Reagent solutions A and B having the following compositions were prepared.
Additive: Imidazole (structural formula is illustrated below) (7.5 mM)
Electron acceptor: PQSA (7.5 mM)
Enzyme: FAD dependent-glucose dehydrogenase (FAD-GDH) 3.5 MU/L (liter)
Buffer solution: 100 mM sodium phosphate buffer solution (pH 7.0)
Reagent solution B has the same composition as reagent solution A except the absence of imidazole.
First, by sputtering palladium, 8 nm-thick conductive layer 3 was deposited on substrate 2 which was 30 mm in length, 7 mm in width and 0.2 mm in thickness and which contained polyethylene terephthalate as its main component. Thereafter, a 0.1 mm-width non-conductive track was formed by laser ablation, to form electrodes 31 to 33. Electrode 31 corresponds to a working electrode, and electrode 32 to a counter electrode. Spacer 5 (0.145 mm thick) having a cut-out with a length of 3.4 mm and a width of 1.2 mm and cover 6 were sequentially attached to the substrate having the electrodes formed thereon. In this way a sensor electrode was manufactured that has capillary 51 with a volume of 0.6 μL.
Cyclic voltammetry was performed for the resultant reagent solution using the aforementioned sensor electrode. As a reference electrode, a silver/silver chloride (saturated potassium chloride) electrode (hereinafter “Ag|AgCl”) was used. […]

[3] = Stability test (exposure test) of sensor at 30° C., 80% humidity; conditions: additive in reagent layer; additive conc. 1.0-5.0 mM
Description: Sensors were manufactured in the same manner as described in section [1-5] using the reagent solutions prepared above. The sensors manufactured were exposed to an environment of high temperature and humidity (30° C., 80% relative humidity) for 24 hours. Response current values of the pre- and post-exposed sensors were measured for a series of glucose solutions of known concentrations.
Sensors were manufactured using fresh reagent solutions having the same compositions as described above. The sensors were subjected to an exposure experiment where they were allowed to stand for 24 hours at 30° C. and 80% humidity. Response current values of non-exposed sensors (i.e., sensors stored under the ambient condition (25° C., 5% humidity) for 24 hours) and the exposed sensors were measured for a series of glucose solutions of known concentrations.

Imidazole
Reagent solution stability % change in response current value between before and after 24 hours storage at 25° C. [1]: −1%
shift of the peak oxidation potential of PQSA after storage of reagent solution ([2]; 21 hours at 25° C. and 5% relative humidity, FIG. 4): positive shift of the peak oxidation potential was limited
shift of the peak potential of PQSA on addition of additive ([2]; imidazole 7.5 mM, PQSA 7.5 mM, FAD-GDH, pH 7.0, FIG. 4 vs FIG. 5): negative shift
Sensor stability % change in response current value between before and after 24 hours exposure at 30° C. and 80% humidity [3]: −50%
